# From ChEMBL document CHEMBL3507680, “University of Dundee, Gates Library screen for HepG2 cell viability”
# Assay: Human HepG2 cell viability assay in 384 well format
# Assay type: toxicity, cell-based
# Design: dose 125 nL, time 70.5 hour; concentration not given beside the values
# Conditions: HepG2 cells, read-out: Inhibition
row,SMILES,cytotoxicity at 70.5 h
1,C[C@@H]1C[C@@H]2CCN(C(=O)c3cnccn3)C[C@H]2O1,-0.399%
2,O=C(NCc1cncc2c1CCN(Cc1ccc(F)cc1)C2)C1CC1,-8.1%
3,Cc1nc(N2CCCC2)nc2c1CCN(C(=O)CC1CC1)CC2,-8.4%
4,NC(=O)c1c[nH]nc1NC(=O)c1cccc(Cl)c1,-3.76%
5,O=C1CC(N(C(=O)c2ccc(Oc3ccccc3)cc2)C2CC2)C(=O)N1 (stereo not drawn),-4.82%
6,Cc1oc2c(c1C(=O)N1C[C@H](O)[C@]3(CCCO3)C1)CCCC2,-3.22%
7,O=C1CSC(c2cccnc2)c2c(n(C3CCOCC3)[nH]c2=O)N1 (stereo not drawn),-24.2%
8,O=C(c1ccccc1)N1C[C@@H]2CCCO[C@@H]2[C@H](N2CCOCC2)C1,1.03%
9,O=C1Nc2ccccc2/C1=C1\CCCCN1,-10.3%
10,COc1ccc(CNC(=O)c2ccc(Cl)cc2F)cc1C(=O)O,-4.39%
11,O=C1CCCN1C(CNS(=O)(=O)C1CC1)Cc1cccc(F)c1 (stereo not drawn),-15.5%
12,CCn1c(Cn2cncn2)nnc1C1CCN(Cc2ccc(C)o2)CC1,-8.85%
13,CC(NC(=O)NCCn1ccnc1)c1ccc2c(c1)OCCCO2 (stereo not drawn),-13.2%
14,COc1cccc(OC2CN(C(=O)c3cc(CC(C)C)nn3C)C2)c1,-1.49%
15,COc1cc(F)ccc1N1CCN(Cc2nnc(C3CC3)o2)CC1,-14.9%
16,CCOCC(=O)N(C)Cc1nc(C(F)(F)F)cs1,20.5%
17,Cc1cc(C(=O)N2CCCC(n3ccnc3)C2)c(C)n1C1CC1 (stereo not drawn),1.06%
18,CCN(Cc1noc(C2CCC2)n1)C(=O)CCc1cc2n(n1)CCNC2,-7.31%
19,Cc1nc(C)c(C(=O)N2CCc3nnc(C4CCCN4C)n3CC2)s1 (stereo not drawn),-3.4%
20,Cn1ncc2c1CN(C(=O)Cc1ccccn1)CC2COCC1CC1 (stereo not drawn),-10.6%
21,Cc1cccc(N2CCN(C(=O)CCc3ccsc3)C(C)C2)n1 (stereo not drawn),-23.2%
22,CCCN1CCCC2(CCN(C(=O)CCCn3cncn3)C2)C1=O (stereo not drawn),-4.88%
23,CCOc1ccc(C#N)cc1NCC(=O)OC,-2.6%

row,SMILES,cytotoxicity at 70.5 h
1,CC(=O)c1c(O)n(C)c2ccc(F)cc12,-4.46%
2,Cc1noc(-c2cnc(NCC3CCCO3)nc2-c2ccco2)c1C (stereo not drawn),-7.96%
3,Cc1cc(C)n(CC2CCCCN2CC(=O)Nc2c(C)n[nH]c2C)n1 (stereo not drawn),2.06%
4,Cc1cc(NC2CC3(CCN(Cc4csc(C)n4)C3)C2)ncn1 (stereo not drawn),-9.59%
5,COc1ccc(C(C)=O)cc1CN1CCn2cccc2C1C (stereo not drawn),-6.89%
6,Cc1cccc(COC[C@@]23CCC[C@@H]2CN(C(=O)Cc2ccco2)C3)n1,-8.53%
7,Cc1nc(C)n(C2CCCN(C(=O)c3ccnc(N(C)C)c3)C2)n1 (stereo not drawn),-3.3%
8,Cc1cccc(COC[C@H]2CC[C@H]3[C@H](CCN3C(=O)CC3CC3)O2)n1,-6.89%
9,CCC1(CNCc2ncc[nH]2)CCCC1,-13.3%
10,CC(C)c1cc(NCC2(CO)CCCC2)ncn1,-10.6%
11,Cc1nnc2n1CCN(Cc1csc(COc3ccccc3)n1)C2,-7.26%
12,O=c1n(CCSCc2ccccc2F)nc2ccccn12,-11.3%
13,CN1C(=O)CC(c2cnn(C)c2)C12CCN(C(=O)c1ccco1)CC2 (stereo not drawn),-6.73%
14,CN(Cc1nc2c(cnn2C)c(=O)[nH]1)Cc1ccc(F)cc1F,-10.6%
15,C[C@@H]1CN(C2CCN(Cc3cnc(-c4cccs4)nc3)CC2)C[C@H](C)O1,1.06%
16,Cc1ccc(C)c2c1NC(=O)C2CC(=O)O (stereo not drawn),2.65%
17,CS(=O)(=O)N1CCCC1CS(=O)(=O)c1ccccc1 (stereo not drawn),-11.6%
18,CC(NC(=O)NCC(F)(F)F)c1nncn1C (stereo not drawn),29.7%
19,CCCN1CCC(NC(=O)c2csc(C)c2-c2ccc(C)cc2)CC1,-0.127%
20,COc1ncccc1C(=O)NCC(C)Oc1cccnc1 (stereo not drawn),-10.8%
21,Cn1cc(C(=O)NCCC(=O)N2CCCCC2)c(-c2cccnc2)n1,6.62%
22,COCCN1C[C@@H]2[C@@H](OC)CCN(C(=O)Cc3ccsc3)[C@@H]2C1,-8.01%
23,CNC(=O)c1cc2c(nc1NCC1CC1)CCN(c1ncccn1)CC2,-20.8%

row,SMILES,cytotoxicity at 70.5 h
1,CC1CCN(C(=O)C2(Cc3cc(C4CCOC4)no3)CCNCC2)CC1 (stereo not drawn),-1.77%
2,CC1CCN(C(=O)NCCc2cc(F)ccc2F)C1 (stereo not drawn),-11.9%
3,N#Cc1cn[nH]c1NCc1cc(Cl)cc(Cl)c1O,17.4%
4,CCc1noc(Cn2c(=O)c3c(C(F)(F)F)cc(C)nc3n2C)n1,19.2%
5,CCN(CC(=O)NC)C(=O)c1csc(Cc2ccccc2)n1,-2.3%
6,COc1cccc(-c2cc(NCc3nccn3C)n(C)n2)c1,-6.65%
7,Cc1oc(C)c(C(=O)NCc2ccccc2S(=O)(=O)N(C)C)c1C,-2.12%
8,CNC(=O)c1ccc2c(c1)C1(CCN(CC(C)C)CC1)C(=O)N2,-10.5%
9,CN1N=C(C(=O)N2CCN(c3ncccc3Cl)CC2)CCC1=O,12%
10,O=C(C(CNCc1ccccn1)c1ccccc1)N1CCOCC1 (stereo not drawn),0.375%
11,O=C(O)c1ccnc(-c2ccnc(COc3ccccc3Cl)n2)c1,-7.03%
12,OC[C@@H](O)CN(CCC(F)(F)F)c1ncc(Cl)cn1,-4.91%
13,c1ccc(Cn2cccn2)c(CN2CCCCC2CCn2ccnc2)c1 (stereo not drawn),0.54%
14,COCCN1CCN(c2ccc3ccc(C(=O)NC4CC4)cn23)CC1,-2.48%
15,O=C1CCCN1Cc1nnc2n1CCN(Cc1ccco1)C2,2.02%
16,COCC(C)NC(=O)Nc1cc(-c2ccccc2C)nn1CCO (stereo not drawn),-4.5%
17,Cc1cccc(C(C(=O)N(C)Cc2ccon2)N(C)C)c1 (stereo not drawn),-0.0384%
18,COCC1CC2(CCN(Cc3cnn(C)c3)CC2)CN1c1ncccn1 (stereo not drawn),-10.8%
19,CC(=O)N1CCC(N2CCC(c3nc(C)cc(C)n3)C2)CC1 (stereo not drawn),-3.99%
20,Cc1noc(C)c1CN1C[C@@H]2COC[C@H](C(=O)N3CCOCC3)[C@@H]2C1,-8.43%
21,CCn1cc(CNc2ccc(Br)c(OC)c2)cn1,4.22%
22,CC1(C)CC(N(Cc2ccccc2)Cc2ncc[nH]2)CC(C)(C)N1,-1.78%
23,Fc1cnc(N2CC3(CCN(Cc4ccsc4)C3)C2)nc1,-6.5%

row,SMILES,cytotoxicity at 70.5 h
1,COc1cc2c(cc1C(=O)N1CC(c3ccncc3)C1)CCC2,-5.23%
2,CN(CCc1ccccc1)Cc1c(C2CC2)[nH]c2ncccc12,2.38%
3,CC(CNC(=O)N1CCN(c2cnccn2)CC1)Cc1cccs1 (stereo not drawn),-4.18%
4,Cc1cnc(CN2CCCCC2c2nc(-c3ccccc3)no2)cn1 (stereo not drawn),-7.59%
5,Cc1ccc(-c2ccc(Cl)nn2)cc1S(N)(=O)=O,-7.63%
6,CCc1nc(NC(=O)NCCc2cscn2)nn1C,-4.65%
7,CN(C)CC1CN(Cc2nnc(-c3ccccc3Cl)o2)CCO1 (stereo not drawn),3.65%
8,CNc1ncc2c(n1)CN(C1CCCC1)C2=O,-9.4%
9,COC1CCCN(C2CCN(c3cccc(-c4csc(C)n4)c3)CC2)C1 (stereo not drawn),-1.69%
10,CCc1n[nH]c(C2CN(C(=O)c3cnns3)CCO2)n1 (stereo not drawn),2.09%
11,CC(=O)Nc1ncc(S(=O)(=O)N2CCN(C3CCCCC3)CC2)s1,-5.13%
12,Cc1noc(C(C)C)c1C(=O)NS(=O)(=O)c1ccc2c(c1)OCCCO2,-9.35%
13,O=C(NCCN1CCOC1=O)c1cnc(-c2cccnc2)nc1,-3.86%
14,CCCc1nc(C)cc(N2CCNC(C(=O)Nc3ccc(C)nc3)C2)n1 (stereo not drawn),19.3%
15,O=C(O)Cn1nc(C2CC2)c2c(-c3cccs3)ccnc21,25.1%
16,COc1cc(F)ccc1-c1cnc(N)cn1,-13.6%
17,COc1ccc(C)cc1Nc1nc2c(C)nn(C)c2c(=O)n1C,-5.48%
18,Cc1nnc(C(C)N2CCN(Cc3noc(C(C)(C)C)n3)CC2)o1 (stereo not drawn),-3.37%
19,Cc1nnc2n1CCN(CC(=O)NC(C)c1cccc3ccccc13)C2 (stereo not drawn),2.87%
20,Cn1cccc(NC(=O)NCCc2cccc(O)c2)c1=O,9.38%
21,Cc1cnn(CC2CCCN2Cc2nc(N)c3ccccc3n2)c1 (stereo not drawn),45.2%
22,CN(C)C(=O)CO[C@H]1CN(Cc2ccc(F)cc2)[C@@H]2CCCO[C@H]12,-9.38%
23,Cc1ccc(S(=O)(=O)NC(C)C#N)cc1Br (stereo not drawn),-3.42%

row,SMILES,cytotoxicity at 70.5 h
1,CC(C)(C(=O)NCCC(=O)O)c1cccc(Br)c1,-12.3%
2,Cc1ncccc1CNCC1COC2(CCCCC2)O1 (stereo not drawn),27.5%
3,c1cn(Cc2nnc(C3CCN(C4CCCCC4)CC3)n2C2CC2)cn1,-1.01%
4,CCN1CC[C@]2(CN(C(=O)C3CCOCC3)C[C@H]2c2ccccc2)C1=O,0.473%
5,Cc1cccc(CN2Cc3ncn(C)c3C(COCC(=O)N(C)C)C2)n1 (stereo not drawn),-3.93%
6,Cc1[nH]ncc1CCCNC(=O)Nc1ccc(S(C)(=O)=O)nc1,10.3%
7,Cc1cc(NC(=O)C2CCCN(C(=O)NCC(C)C)C2)ccn1 (stereo not drawn),-14.5%
8,O=C([C@H]1CN(CCc2ccccc2)C[C@H]2OCC[C@@H]12)N1CCCO1,6.27%
9,CN1CCN(C2CCOCC2)CC12CCC(=O)N(CC1CC1)CC2 (stereo not drawn),-6.33%
10,COc1cccc(N2CCN(C(=O)C(O)CC(C)C)CC2=O)c1 (stereo not drawn),-2.41%
11,Cc1cc(C2CCC2)nc(N2CC(n3cccn3)C2)n1,-4.39%
12,Cc1nc2cc(O)nn2c(C)c1CCC(=O)NCc1cc(Br)cs1,-13.2%
13,CNc1ncc2c(n1)CN(CCc1ccc(C)cc1)C2=O,-3.63%
14,CC(C)(C)c1cc(=O)n2c(n1)SCC(C(=O)NCc1cccs1)C2 (stereo not drawn),0.387%
15,Cc1occc1C(=O)N1CCc2c(CNc3ncccn3)cncc2C1,-1.28%
16,Cn1cc(C2COC3(CCN(C(=O)c4ccn(C)n4)CC3)C2)cn1 (stereo not drawn),-14.5%
17,CCc1cc(=O)[nH]c2nnc(SCC(=O)OC)n12,9.93%
18,O=C(c1cc(C2CC2)no1)N1C[C@H]2CC[C@@H]1CN(Cc1ccccn1)C2,-14.9%
19,Cc1nc(CN2C(=O)C[C@@H]3[C@@H]2CCN3CC2CCOCC2)cs1,23.6%
20,Cc1cc(C)n(CC2CCCN2C(=O)CCc2nccs2)n1 (stereo not drawn),-7.22%
21,CS(=O)(=O)N[C@H]1CN(C(=O)c2cscn2)[C@@H]2CCCO[C@H]12,-8.41%
